Data on three molecules can be found in ChEMBL document CHEMBL5291721, “A preclinical secondary pharmacology resource illuminates target-adverse drug reaction associations of marketed drugs” (Nat Commun, 2023).

Targets include Cannabinoid receptor 1 (Homo sapiens, UniProt P21554); Vasopressin V2 receptor (Homo sapiens, UniProt P30518); Melanocortin receptor 3 (Homo sapiens, UniProt P41968); D(3) dopamine receptor (Homo sapiens, UniProt P35462).
Assay [1] deals with Sodium-dependent noradrenaline transporter (Homo sapiens, UniProt P23975).
A further assay concerns the target T1, Adenosine receptor A1 (Homo sapiens, UniProt P30542).
T1 sequence (P30542 whole entry): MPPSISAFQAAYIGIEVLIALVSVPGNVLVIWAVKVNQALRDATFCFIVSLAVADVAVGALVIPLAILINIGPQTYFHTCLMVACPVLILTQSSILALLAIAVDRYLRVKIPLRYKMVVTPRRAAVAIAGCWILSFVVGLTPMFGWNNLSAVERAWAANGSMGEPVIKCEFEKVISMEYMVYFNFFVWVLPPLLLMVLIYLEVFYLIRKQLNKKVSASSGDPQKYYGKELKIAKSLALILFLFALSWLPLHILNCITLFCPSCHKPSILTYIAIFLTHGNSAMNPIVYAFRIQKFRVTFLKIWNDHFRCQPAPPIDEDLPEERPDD

Assay [2] addresses T2, Neuropeptide Y receptor type 1 (Homo sapiens, UniProt P25929).
T2 sequence (P25929 whole entry): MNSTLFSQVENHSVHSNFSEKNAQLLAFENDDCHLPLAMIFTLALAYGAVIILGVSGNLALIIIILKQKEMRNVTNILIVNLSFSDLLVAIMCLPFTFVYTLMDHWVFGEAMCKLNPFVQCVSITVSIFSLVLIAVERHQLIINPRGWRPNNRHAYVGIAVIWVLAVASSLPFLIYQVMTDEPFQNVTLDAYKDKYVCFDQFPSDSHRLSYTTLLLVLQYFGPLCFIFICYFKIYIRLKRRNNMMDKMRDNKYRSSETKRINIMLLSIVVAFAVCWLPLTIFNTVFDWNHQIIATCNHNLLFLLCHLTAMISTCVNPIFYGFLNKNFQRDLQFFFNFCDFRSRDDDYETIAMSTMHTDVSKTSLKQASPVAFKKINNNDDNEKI

The target in assay [3] is 5-hydroxytryptamine receptor 2A (Homo sapiens, UniProt P28223). It is filed as functional, cell-based.
The target in assay [4] is Beta-2 adrenergic receptor (Homo sapiens, UniProt P07550).
A further assay concerns the target T3, Androgen receptor (Rattus norvegicus, UniProt P15207).
T3 sequence (P15207 whole entry): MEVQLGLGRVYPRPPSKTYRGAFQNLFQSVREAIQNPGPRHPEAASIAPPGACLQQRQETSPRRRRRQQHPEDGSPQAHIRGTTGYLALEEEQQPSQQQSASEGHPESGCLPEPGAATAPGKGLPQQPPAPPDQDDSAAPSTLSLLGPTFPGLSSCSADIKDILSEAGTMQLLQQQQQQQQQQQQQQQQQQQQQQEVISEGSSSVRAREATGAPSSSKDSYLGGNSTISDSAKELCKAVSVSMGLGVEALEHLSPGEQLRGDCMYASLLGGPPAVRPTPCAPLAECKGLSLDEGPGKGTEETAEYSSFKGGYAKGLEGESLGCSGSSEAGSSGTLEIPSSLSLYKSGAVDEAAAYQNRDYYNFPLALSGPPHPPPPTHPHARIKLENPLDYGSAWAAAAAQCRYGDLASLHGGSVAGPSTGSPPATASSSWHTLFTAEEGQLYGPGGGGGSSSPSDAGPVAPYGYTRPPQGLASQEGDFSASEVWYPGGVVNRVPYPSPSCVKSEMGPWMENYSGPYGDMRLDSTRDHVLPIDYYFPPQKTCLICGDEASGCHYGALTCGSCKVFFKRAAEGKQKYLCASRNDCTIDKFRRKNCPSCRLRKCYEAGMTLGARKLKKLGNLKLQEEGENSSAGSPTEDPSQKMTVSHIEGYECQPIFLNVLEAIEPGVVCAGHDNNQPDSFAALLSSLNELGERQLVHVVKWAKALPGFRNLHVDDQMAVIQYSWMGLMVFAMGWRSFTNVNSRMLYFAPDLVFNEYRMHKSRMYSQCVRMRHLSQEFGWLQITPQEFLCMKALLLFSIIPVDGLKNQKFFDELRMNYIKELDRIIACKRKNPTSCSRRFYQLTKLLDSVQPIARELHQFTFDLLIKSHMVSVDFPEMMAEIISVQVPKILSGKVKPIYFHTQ
It is filed as functional.
Note: assay procedure not described here.

Melanocortin receptor 3, sequence (P41968 whole entry): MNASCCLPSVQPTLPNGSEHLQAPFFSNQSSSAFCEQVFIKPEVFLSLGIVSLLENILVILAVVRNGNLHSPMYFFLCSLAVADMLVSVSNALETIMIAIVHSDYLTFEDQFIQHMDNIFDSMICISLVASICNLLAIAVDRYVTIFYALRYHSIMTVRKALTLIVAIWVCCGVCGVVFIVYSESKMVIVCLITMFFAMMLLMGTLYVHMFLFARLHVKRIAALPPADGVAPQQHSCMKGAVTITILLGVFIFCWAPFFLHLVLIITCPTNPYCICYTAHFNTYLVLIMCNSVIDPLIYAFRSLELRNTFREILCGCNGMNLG
Cannabinoid receptor 1, sequence (P21554 whole entry): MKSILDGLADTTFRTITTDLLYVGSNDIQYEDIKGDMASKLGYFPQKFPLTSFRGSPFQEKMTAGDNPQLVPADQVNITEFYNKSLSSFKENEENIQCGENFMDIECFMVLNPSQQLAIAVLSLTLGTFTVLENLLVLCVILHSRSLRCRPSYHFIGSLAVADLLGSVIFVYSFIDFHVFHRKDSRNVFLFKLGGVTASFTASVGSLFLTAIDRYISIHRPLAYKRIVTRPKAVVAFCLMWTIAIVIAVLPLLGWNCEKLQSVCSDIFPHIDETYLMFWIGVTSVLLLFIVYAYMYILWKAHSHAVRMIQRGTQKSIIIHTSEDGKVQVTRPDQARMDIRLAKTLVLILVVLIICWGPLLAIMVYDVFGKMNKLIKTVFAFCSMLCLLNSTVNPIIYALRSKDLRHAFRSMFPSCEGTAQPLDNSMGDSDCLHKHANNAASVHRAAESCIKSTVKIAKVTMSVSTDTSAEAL
Sodium-dependent noradrenaline transporter, sequence (P23975 whole entry): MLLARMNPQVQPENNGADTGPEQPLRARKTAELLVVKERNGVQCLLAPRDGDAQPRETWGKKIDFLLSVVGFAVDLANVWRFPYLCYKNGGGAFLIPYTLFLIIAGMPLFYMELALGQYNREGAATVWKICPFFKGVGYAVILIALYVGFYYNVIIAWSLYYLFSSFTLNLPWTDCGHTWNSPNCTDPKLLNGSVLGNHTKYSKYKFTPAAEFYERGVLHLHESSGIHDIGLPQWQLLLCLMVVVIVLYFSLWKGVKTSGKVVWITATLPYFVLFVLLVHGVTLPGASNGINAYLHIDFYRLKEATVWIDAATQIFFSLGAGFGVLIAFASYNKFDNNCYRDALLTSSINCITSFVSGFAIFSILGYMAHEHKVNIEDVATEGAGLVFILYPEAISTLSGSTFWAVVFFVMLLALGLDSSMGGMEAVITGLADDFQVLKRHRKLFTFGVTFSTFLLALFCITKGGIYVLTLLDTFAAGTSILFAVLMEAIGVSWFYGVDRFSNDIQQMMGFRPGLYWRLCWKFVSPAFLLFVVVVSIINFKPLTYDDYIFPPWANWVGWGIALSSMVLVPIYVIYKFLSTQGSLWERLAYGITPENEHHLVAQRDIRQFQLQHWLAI
5-hydroxytryptamine receptor 2A, sequence (P28223 whole entry): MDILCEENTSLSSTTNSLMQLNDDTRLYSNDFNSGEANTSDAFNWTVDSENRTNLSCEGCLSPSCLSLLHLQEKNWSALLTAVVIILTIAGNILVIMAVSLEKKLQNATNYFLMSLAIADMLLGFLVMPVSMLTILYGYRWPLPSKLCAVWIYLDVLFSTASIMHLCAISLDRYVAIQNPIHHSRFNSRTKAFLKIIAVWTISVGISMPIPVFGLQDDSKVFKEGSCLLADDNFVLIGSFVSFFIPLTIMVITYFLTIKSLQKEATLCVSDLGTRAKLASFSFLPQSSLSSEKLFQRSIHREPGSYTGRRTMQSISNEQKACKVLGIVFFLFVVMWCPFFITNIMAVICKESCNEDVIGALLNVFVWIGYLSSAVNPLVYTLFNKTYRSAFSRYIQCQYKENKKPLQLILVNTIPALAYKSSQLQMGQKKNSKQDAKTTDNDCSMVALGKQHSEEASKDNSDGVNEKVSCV
D(3) dopamine receptor, sequence (P35462 whole entry): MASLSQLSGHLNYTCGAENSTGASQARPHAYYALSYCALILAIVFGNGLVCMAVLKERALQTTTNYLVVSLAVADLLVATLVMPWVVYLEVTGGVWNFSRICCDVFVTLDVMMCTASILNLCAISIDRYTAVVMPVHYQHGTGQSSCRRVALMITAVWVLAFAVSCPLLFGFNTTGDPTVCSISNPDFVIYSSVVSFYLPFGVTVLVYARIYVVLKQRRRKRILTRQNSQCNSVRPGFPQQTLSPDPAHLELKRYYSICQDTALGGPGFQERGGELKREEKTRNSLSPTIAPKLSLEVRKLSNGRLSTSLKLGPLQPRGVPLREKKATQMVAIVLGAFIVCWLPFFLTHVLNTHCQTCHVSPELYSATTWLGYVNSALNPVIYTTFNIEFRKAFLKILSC

For `CN(C)c1ccc(C(=C2C=CC(=[N+](C)C)C=C2)c2ccc(N(C)C)cc2)cc1` [GENTIAN VIOLET], in assay [1], the activity was half-maximal at 4.7 µM (AC50).
In the case of `Nc1ccc(S(N)(=O)=O)cc1` [SULFANILAMIDE], the half-maximal activity concentration (AC50) at Adenosine receptor A1 was over 30 µM.
Consider HYDROXOCOBALAMIN, for which the AC50 (in assay [2]; in assay [3]; at Cannabinoid receptor 1; in assay [4]; at Vasopressin V2 receptor; at Androgen receptor) was over 30 µM in each case. Moreover, the AC50 at Melanocortin receptor 3 and at D(3) dopamine receptor was over 30 µM throughout.

In general, AC50 refers to the concentration giving half of the maximal activity seen. Lower therefore signals activity at low concentration.
